The results in this text go back to patent US11981618B2, “P62 ligand compound, and composition for preventing, ameliorating or treating proteinopathies comprising the same” (AUTOTAC INC., priority 2018, dated 2024).

Molecules are shown by their SMILES. “Also recorded” adds a separate entry of the source.

In the first assay the target is T1, p62 protein (Homo sapiens, UniProt Q13501).
T1 construct: endogenous in cells; host or cells: HEK293 (cell lysate treated with compounds)
T1 sequence (Q13501 whole entry): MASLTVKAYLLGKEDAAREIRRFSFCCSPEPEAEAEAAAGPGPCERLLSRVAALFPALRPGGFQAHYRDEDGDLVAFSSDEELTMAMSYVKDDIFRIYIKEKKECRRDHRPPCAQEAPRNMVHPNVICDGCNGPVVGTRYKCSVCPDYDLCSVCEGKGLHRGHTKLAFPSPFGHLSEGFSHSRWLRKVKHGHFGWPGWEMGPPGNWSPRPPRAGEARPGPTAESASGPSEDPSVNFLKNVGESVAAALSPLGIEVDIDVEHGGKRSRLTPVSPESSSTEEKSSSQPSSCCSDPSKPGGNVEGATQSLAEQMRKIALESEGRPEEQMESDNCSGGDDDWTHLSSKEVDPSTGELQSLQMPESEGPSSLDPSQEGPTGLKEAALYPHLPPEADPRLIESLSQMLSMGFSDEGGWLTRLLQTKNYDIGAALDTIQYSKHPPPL
Put plainly: Oligomerization activity of p62 protein in cultured cells by immunoblotting. The format is cell-based. Conditions: HEK293 cell lysate treated with test compounds at room temperature for 2 hours; immunoblot, FIG. 2. The text has this:
In order to evaluate the p62 protein oligomerization activity efficacy by the compounds (Examples 1-19), HEK293 cell line, which is human embryonic kidney-derived cell, was collected. As representative compounds among the present compounds, YOK-1104, YOK-2204, YOK-3304, YOK-1204, YOK-4404, YOK-1107, YOK-1109, YOK-2207, YOK-2209, YT-4-1, YT-4-2, YT-6-1, YT-6-2, YT-6-7, YT-6-8, YT-9-1, YT-9-2 were selected. In order to measure intracellular p62 protein activation and oligomerization according to the treatment with these selected representative compounds, the respective cells were dispensed into a pi dish. The cells were collected after further culturing for 24 hours so that the cells were completely attached to the surface of the plate. 100 ul of lysis buffer (20 mM Tris, pH 7.4), 150 mM NaCl, 1% Triton X-100, 2 mM NaF, 2 mM EDTA, 2 mM beta-glycerophosphate, 5 mM sodium orthovanadate, 1 mM PMSF, leupeptin, aprotinin) were injected into each sample and the cells were lysed. Based on the measured total protein concentration, each sample was treated with test compounds at room temperature for 2 hours, and then a sample buffer was added and allowed to react at 95° C. for 10 minutes. 25 ul was taken from the samples after the reaction, and dispensed into each well of acrylamide gel, and then immunoblotting was performed.
Regarding `CC(C)NC[C@@H](O)COc1ccc(OCc2ccccc2)c(OCc2ccccc2)c1` [YOK-1104, (R)-1-(3,4-bis(benzyloxy)phenoxy)-3-(isopropylamino)propan-2-ol], the “p62 protein oligomerization activity (p62 monomer, oligomers and high-molecular aggregates)” value (“p62 protein oligomerization activity” for short) is recorded as “increasing the p62 protein oligomerization activity”.

Regarding `N=C(N)NC[C@@H](O)COc1ccc(OCc2ccccc2)c(OCc2ccccc2)c1` [YOK-1107, (R)-1-(3-(3,4-bis(benzyloxy)phenoxy)-2-hydroxypropyl)guanidine], the “p62 protein oligomerization activity” value is listed as “increasing the p62 protein oligomerization activity”. The same measure, in the same setting: next, `N=C(N)NCCNC[C@@H](O)COc1ccc(OCc2ccccc2)c(OCc2ccccc2)c1` [YOK-1109, (R)-1-(2-((3-(3,4-bis(benzyloxy)phenoxy)-2-hydroxypropyl)amino)ethyl)guanidine]: “increasing the p62 protein oligomerization activity”. On the same count and under the same terms, next, `N=C(N)NC[C@@H](O)COc1ccc(OCCc2ccccc2)c(OCCc2ccccc2)c1` [YOK-2207, (R)-1-(3-(3,4-diphenethoxyphenoxy)-2-hydroxypropyl)guanidine]: “increasing the p62 protein oligomerization activity”; `N=C(N)NCCNC[C@@H](O)COc1ccc(OCCc2ccccc2)c(OCCc2ccccc2)c1` [YOK-2209, (R)-1-(2-((3-(3,4-diphenethoxyphenoxy)-2-hydroxypropyl)amino)ethyl)guanidine]: “increasing the p62 protein oligomerization activity”; `CC(C)NC[C@@H](O)COc1ccc(OCc2ccc(Cl)cc2)c(OCc2ccc(Cl)cc2)c1` [YT-4-1, (R)-1-(3,4-bis((4-chlorobenzyl)oxy)phenoxy)-3-(isopropylamino)propan-2-ol]: “increasing the p62 protein oligomerization activity”. Regarding `CC(C)NC[C@@H](O)COc1ccc(OCc2ccc(F)cc2)c(OCc2ccc(F)cc2)c1` [YT-4-2, (R)-1-(3,4-bis((4-fluorobenzyl)oxy)phenoxy)-3-(isopropylamino)propan-2-ol], the “p62 protein oligomerization activity” value is on record as “increasing the p62 protein oligomerization activity”. Regarding `OCCNC[C@@H](O)COc1ccc(OCc2ccc(Cl)cc2)c(OCc2ccc(Cl)cc2)c1` [YT-6-1], the “p62 protein oligomerization activity” value was “increasing the p62 protein oligomerization activity”. `OCCNC[C@@H](O)COc1ccc(OCc2ccc(F)cc2)c(OCc2ccc(F)cc2)c1` [YT-6-2]: the “p62 protein oligomerization activity” value is reported as “increasing the p62 protein oligomerization activity”.

The next assay concerns LC3. Put plainly: Autophagy activity in cultured cells by immunoblotting using LC3 as a marker. In kind it is cell-based, human. Conditions: HeLa; 5 μM; treated for 1, 3, 6, 12, 24, 48 hours; FIG. 4. On the procedure: In order to evaluate the autophagy activity efficacy by the compounds (Examples 1-19), HeLa cell line, which is a cell line derived from a cervical cancer patient, was cultured using a DMEM medium containing 10% FBS and 1% streptomycin/penicillin in an incubator with 5% carbon dioxide. As representative compounds among the present compounds, YOK-1107, YOK-4404 and YOK-1104 were selected. In order to measure autophagy activity according to the treatment with these selected representative compounds, the respective cells were dispensed into 6 well plates. Additional cultures were performed […] so that the cells were completely attached to the surface of the plate. To find the concentration at which the respective compounds could increase the phenomenon of autophagy, the test compounds were diluted at 1, 2, 5, 10 and 20 μM and treated. After treatment with the respective compounds, the cells were cultured again in a cell incubator for 24 hours, and then the cells were collected. To extract proteins from the collected cells, 100 ul of lysis buffer (20 mM Tris (pH 7.4), 150 mM NaCl, 1% Triton X-100, 2 mM NaF, 2 mM EDTA, 2 mM beta-glycerophosphate, 5 mM sodium orthovanadate, 1 mM PMSF, leupeptin, aprotinin) was injected into each sample, and cells were lysed. Based on the measured total protein concentration, a sample buffer was added to each sample and allowed to react at 100° C. for 5 minutes. 5 ul was taken from the samples after the reaction, and dispensed into each well of acrylamide gel, and then immunoblotting was performed.
In order to investigate the autophagy activity efficacy by the compounds (Examples 1-19), immunoblotting was performed in the same manner as in Experimental Example 2 using LC3 as a marker. As for the difference, in order to evaluate the treatment time required for activation and the activity retention time, as the representative compounds selected among the present compounds, 5 μM of YOK-1107, YOK-1204, YOK-1304, YOK-2204, YOK-3304, […] treated for 1, 3, 6, 12, 24, 48 hours. On the other hand, as the representative compounds selected among the compounds of the present invention, […] YOK-1107, YOK-1109, YOK-2207, YOK-2209, YT-4-1, YT-4-2, YT-6-1, YT-6-2, YT-6-8, YT-6-7, YT-9-1, YT-9-2 were treated for 24 hours.
In order to investigate the autophagy activity efficacy of control compounds, immunoblotting was performed in the same manner as in Experimental Example 2 by using LC3 as a marker. As the control compounds, compounds having the following structure were used.
`N=C(N)NC[C@@H](O)COc1ccc(OCc2ccccc2)c(OCc2ccccc2)c1` [YOK-1107, (R)-1-(3-(3,4-bis(benzyloxy)phenoxy)-2-hydroxypropyl)guanidine]: the “autophagy activity (level of LC3)” value was “gradually increased; also recorded: increasing the autophagy activity”. Still for that read-out and setting: under `CC(C)NC[C@@H](O)COc1ccc(OCc2ccccc2)c(OCCCc2ccccc2)c1` [YOK-1304, (R)-1-(4-(benzyloxy)-3-(3-phenylpropoxy)phenoxy)-3-(isopropylamino)propan-2-ol] stands “gradually increased; also recorded: increasing the autophagy activity”.

The same assay, now with this note: HeLa; 1, 2, 5, 10 and 20 μM; 24 hours; FIG. 3.
Consider `O=Cc1ccc(OCCCc2ccccc2)c(OCCCc2ccccc2)c1` [Example 3301, 3,4-bis(3-phenylpropoxy)benzaldehyde], for which the “autophagy activity (level of LC3)” value is given as “increasing the autophagy activity”. On the same count and under the same terms, under `CC(C)NC[C@@H](O)COc1ccc(OCc2ccccc2)c(OCc2ccccc2)c1` [YOK-1104, (R)-1-(3,4-bis(benzyloxy)phenoxy)-3-(isopropylamino)propan-2-ol] stands “increasing the autophagy activity”. The same measure, in the same setting: under `N=C(N)NC[C@@H](O)COc1ccc(OCc2ccccc2)c(OCc2ccccc2)c1` [YOK-1107, (R)-1-(3-(3,4-bis(benzyloxy)phenoxy)-2-hydroxypropyl)guanidine] stands “increasing the autophagy activity”.

Still in this assay, the particulars now being: HeLa; different concentrations and different times; FIG. 5.
`O=Cc1ccc(OCc2ccccc2)c(OCc2ccccc2)c1` [Example 1101, 3,4-bis(benzyloxy)benzaldehyde, reference compound]: the “autophagy activity (level of LC3), control compounds” value is reported as “do not increase autophagy activity”. Same read-out and setting: under `Oc1ccc(OCc2ccccc2)c(OCc2ccccc2)c1` [Example 1102, 3,4-bis(benzyloxy)phenol, reference compound] stands “do not increase autophagy activity”.

Take `c1ccc(COc2ccc(OC[C@H]3CO3)cc2OCc2ccccc2)cc1` [Example 1103, (R)-2-((3,4-bis(benzyloxy)phenoxy)methyl)oxirane, reference compound]: the “autophagy activity (level of LC3), control compounds” value was “do not increase autophagy activity”.

For the compound `O=Cc1ccc(OCc2ccccc2)c(OCCc2ccccc2)c1` [Example 1201, 4-(benzyloxy)-3-phenethoxybenzaldehyde, reference compound], the “autophagy activity (level of LC3), control compounds” value is on record as “do not increase autophagy activity”. The same measure, in the same setting: next, `Oc1ccc(OCc2ccccc2)c(OCCc2ccccc2)c1` [Example 1202, 4-(benzyloxy)-3-phenethoxyphenol, reference compound]: “do not increase autophagy activity”; `c1ccc(CCOc2cc(OC[C@H]3CO3)ccc2OCc2ccccc2)cc1` [Example 1203, (R)-2-((4-(benzyloxy)-3-phenethoxyphenoxy)methyl)oxirane, reference compound]: “do not increase autophagy activity”; `O=Cc1ccc(OCc2ccccc2)c(OCCCc2ccccc2)c1` [Example 1301, 4-(benzyloxy)-3-(3-phenylpropoxy)benzaldehyde, reference compound]: “do not increase autophagy activity”. On to `Oc1ccc(OCc2ccccc2)c(OCCCc2ccccc2)c1` [Example 1302, 4-(benzyloxy)-3-(3-phenylpropoxy)phenol, reference compound], for which the “autophagy activity (level of LC3), control compounds” value was “do not increase autophagy activity”. On the same count and under the same terms, under `O=Cc1ccc(OCc2ccccc2)c(OCCCCc2ccccc2)c1` [Example 1401, 4-(benzyloxy)-3-(4-phenylbutoxy)benzaldehyde, reference compound] stands “do not increase autophagy activity”; under `Oc1ccc(OCc2ccccc2)c(OCCCCc2ccccc2)c1` [Example 1402, 4-(benzyloxy)-3-(4-phenylbutoxy)phenol, reference compound], “do not increase autophagy activity”; under `O=Cc1ccc(OCCc2ccccc2)c(OCCc2ccccc2)c1` [Example 2201, 3,4-diphenethoxybenzaldehyde, reference compound], “do not increase autophagy activity”. Regarding `Oc1ccc(OCCc2ccccc2)c(OCCc2ccccc2)c1` [Example 2202, 3,4-diphenethoxyphenol, reference compound], the “autophagy activity (level of LC3), control compounds” value is “do not increase autophagy activity”. `Oc1ccc(OCCCCc2ccccc2)c(OCCCCc2ccccc2)c1` [Example 4402, 3,4-bis(4-phenylbutoxy)phenol, reference compound]: the “autophagy activity (level of LC3), control compounds” value is listed as “do not increase autophagy activity”.

The same assay, now with this note: HeLa; treated for 24 hours (concentration not given); FIG. 4.
`N=C(N)NC[C@@H](O)COc1ccc(OCc2ccccc2)c(OCc2ccccc2)c1` [YOK-1107, (R)-1-(3-(3,4-bis(benzyloxy)phenoxy)-2-hydroxypropyl)guanidine]: the “autophagy activity (level of LC3)” value was “gradually increased”.

On to `N=C(N)NCCNC[C@@H](O)COc1ccc(OCc2ccccc2)c(OCc2ccccc2)c1` [YOK-1109, (R)-1-(2-((3-(3,4-bis(benzyloxy)phenoxy)-2-hydroxypropyl)amino)ethyl)guanidine], for which the “autophagy activity (level of LC3)” value is “gradually increased”.

Regarding `N=C(N)NC[C@@H](O)COc1ccc(OCCc2ccccc2)c(OCCc2ccccc2)c1` [YOK-2207, (R)-1-(3-(3,4-diphenethoxyphenoxy)-2-hydroxypropyl)guanidine], the “autophagy activity (level of LC3)” value is reported as “gradually increased”. Take `N=C(N)NCCNC[C@@H](O)COc1ccc(OCCc2ccccc2)c(OCCc2ccccc2)c1` [YOK-2209, (R)-1-(2-((3-(3,4-diphenethoxyphenoxy)-2-hydroxypropyl)amino)ethyl)guanidine]: the “autophagy activity (level of LC3)” value is “gradually increased”. Take `CC(C)NC[C@@H](O)COc1ccc(OCc2ccc(Cl)cc2)c(OCc2ccc(Cl)cc2)c1` [YT-4-1, (R)-1-(3,4-bis((4-chlorobenzyl)oxy)phenoxy)-3-(isopropylamino)propan-2-ol]: the “autophagy activity (level of LC3)” value is recorded as “gradually increased”. On the same count and under the same terms, under `CC(C)NC[C@@H](O)COc1ccc(OCc2ccc(F)cc2)c(OCc2ccc(F)cc2)c1` [YT-4-2, (R)-1-(3,4-bis((4-fluorobenzyl)oxy)phenoxy)-3-(isopropylamino)propan-2-ol] stands “gradually increased”; under `OCCNC[C@@H](O)COc1ccc(OCc2ccc(Cl)cc2)c(OCc2ccc(Cl)cc2)c1` [YT-6-1], “gradually increased”. Still for that read-out and setting: next, `OCCNC[C@@H](O)COc1ccc(OCc2ccc(F)cc2)c(OCc2ccc(F)cc2)c1` [YT-6-2]: “gradually increased”.
